Measurements taken from patent US20190365626A1, “HIGHLY EFFECTIVE PHOTOPROTECTIVE AGENTS” (3V Sigma S.P.A., priority 2018, published 2019).

Columns and labels:
[1] = specific extinction E^11 (1% solution, 1 cm optical path); type: physicochemical; settings: at 328 nm; solution containing 1% of the product, optical path of 1 cm
From the text: The efficacy of UV absorbers is characterised by the parameter E^11 (or E11), which corresponds to the extinction value measured at the maximum absorption wavelength of a solution containing 1% of the product in question, measured with an optical path of 1 cm. Such extinction is called “specific extinction”.

[2] = Solubility Test in emollients (cosmetic solvents); type: physicochemical
Experimental: The solubility of the sunscreens obtained in example 2 and (comparative) example 3 were evaluated in various emollients commonly used in suncare and daily skincare products: C12-15 alkyl benzoate, dibutyl adipate, caprylic/capric triglyceride and ethylhexyl salicylate.

[3] = in Caprylic/Capric Triglyceride

| E^11 extinction [1] | solubility ([2]; in C12-15 Alkyl Benzoate) | solubility [2, 3] | solubility ([2]; in Dibutyl Adipate) | solubility ([2]; in Ethylhexyl Salicylate) | SMILES |
| --- | --- | --- | --- | --- | --- |
| 1431 | 15% w/w % | 15% w/w % | 20% w/w % | 25% w/w % | CCCCC(CC)COC(=O)c1ccc(Nc2nc(Nc3ccc(-c4nc5cc(C(C)(C)CC)ccc5o4)cc3)nc(Nc3ccc(-c4nc5cc(C(C)(C)CC)ccc5o4)cc3)n2)cc1 (stereo not shown) [Example 2] |
| 1395 | 5% w/w % | <5% w/w % | 5% w/w % | 10% w/w % | CCCCC(CC)COC(=O)c1ccc(Nc2nc(Nc3ccc(-c4nc5cc(C(C)(C)C)ccc5o4)cc3)nc(Nc3ccc(-c4nc5cc(C(C)(C)C)ccc5o4)cc3)n2)cc1 (stereo not shown) [Example 3] |
